Measurements: paper PMC11446282
No end group written: not given here.

Experiments:
[1] = test system: PP2A-B55α; test: Affinity purification of YFP-tagged designed peptides from HeLa cells, binding to PP2A-B55α by Western blot; parameters: species or system human; conditions: experimental binding of YFP-tagged designed peptide to PP2A-B55α
[2] = test system: B55α interactors; test: MS analysis of B55α WT, V228A, I284A, S287A and D340A immunopurifications; type: binding, human; conditions: log2 ratio of interactor abundance, 4 replicates each, normalised to bait B55α; for log2_ratio_D340_WT: B55α D340A vs WT immunopurification; for log2_ratio I284_WT: B55α I284A vs WT immunopurification; for log2_ratio S287_WT: B55α S287A vs WT immunopurification; for log2_ratio V228_WT: B55α V228A vs WT immunopurification
Description: Standard cloning techniques were used throughout. Point mutations were introduced by whole plasmid polymerase chain reaction (PCR). All constructs were fully sequenced. Synthetic DNA was purchased from GeneArt, Life Technologies and cloned into pcDNA5/FRT/TO (Invitrogen) expression vector containing YFP, resulting in the indicated YFP fusion proteins. These constructs were transiently transfected into HeLa cells 24 hours before harvesting cells. Cells were lysed in lysis buffer [50 mM tris-HCl (pH 7.5), 50 mM NaCl, 1 mM EDTA, 1 mM […], and 0.1% NP-40]. Complexes were immunoprecipitated at 4°C in lysis buffer with green fluorescent protein (GFP)–Trap (ChromoTek) and washed in lysis buffer. Precipitated protein complexes were washed three times in lysis buffer, eluted in 2× SDS sample buffer, and subjected to Western blotting or MS as indicated.
Pull-downs were analyzed on a Q-Exactive Plus quadrupole or Fusion Orbitrap Lumos mass spectrometer (Thermo Fisher Scientific) equipped with Easy-nLC 1000 or […] (Thermo Fisher Scientific) and nanospray source (Thermo Fisher Scientific).
Static modifications included carbamidomethylcysteine, and variable modifications included oxidized methionine and STY phosphorylation. Searches were filtered using orthogonal measures including mass measurement accuracy (±3 parts per million), Xcorr for charges from +2 to +4, and dCn targeting a <1% false discovery rate at the peptide level. Quantification of LC-MS/MS spectra was performed using MassChroQ ([57]) and the iBAQ method ([58]). All data were analyzed using R 4.3.0. Missing values were imputed from a normal distribution. […] In each dataset, the abundance of the protein of interest was normalized to be equal across all samples. Statistical analyses were done using a two-tailed Student’s t test.

[3] = target: T1, B55α (Homo sapiens, UniProt P63151); test: Surface plasmon resonance with captured Twin-Strep B55α; type: binding; conditions: same SPR approach as for B55i; fig. S15
T1 construct: His; made in house; host or cells: HEK293 cells
T1 sequence (P63151 1-447): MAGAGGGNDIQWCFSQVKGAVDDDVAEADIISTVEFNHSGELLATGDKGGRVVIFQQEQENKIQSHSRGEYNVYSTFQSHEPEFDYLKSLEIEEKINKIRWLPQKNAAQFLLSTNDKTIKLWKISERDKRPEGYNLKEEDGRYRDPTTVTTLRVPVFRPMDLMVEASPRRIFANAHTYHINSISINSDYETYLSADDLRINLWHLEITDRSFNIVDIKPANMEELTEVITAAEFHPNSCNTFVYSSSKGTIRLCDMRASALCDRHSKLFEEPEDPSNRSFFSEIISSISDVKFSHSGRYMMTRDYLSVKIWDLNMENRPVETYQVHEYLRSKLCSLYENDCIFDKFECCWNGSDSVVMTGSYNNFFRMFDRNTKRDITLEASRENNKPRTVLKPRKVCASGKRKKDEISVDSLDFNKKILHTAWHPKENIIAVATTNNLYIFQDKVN

Row | binding to B55α, affinity range [3] | Substance | binding to PP2A-B55α (Western blot) [1] | log2_ratio_D340_WT [2] | log2_ratio I284_WT [2] | log2_ratio S287_WT [2] | log2_ratio V228_WT [2]
1 | – | SLIWQSNMDKALVKLQLCHMLEQPDLTKSVMILAGVLAAQEFM | 0 | – | – | – | –
2 | – | PVKLQLLKKAKEKLADENLSLEKKVLLKNLIKSW | 68 | – | – | – | –
3 | – | ELPLEEVERLLKLAEEKLKDESLSLTKKVLLRNL | 55.5 | – | – | – | –
4 | – | HSPB1_HUMAN | – | -1.28 | -0.92 | -0.85 | -0.80
5 | – | HAX1_HUMAN | – | -0.10 | -0.26 | 0.0269 | -0.50
6 | – | HS90A_HUMAN | – | -0.17 | -0.24 | 0.22 | -0.28
7 | low micromolar | QIIQRSFSSPENFQRQAVMNSALRQMSYGGW [RBM7 129–158 WT] | – | – | – | – | –
8 | – | DNJB6_HUMAN | – | -0.39 | 0.42 | 1.10 | 2.13
9 | – | LLELAKKKYEEELKKKEPDLTKLVLLKNVIKKLK | 42 | – | – | – | –
10 | – | HS90B_HUMAN | – | -0.13 | -0.16 | 0.29 | -0.12
11 | – | BAG3_HUMAN | – | 0.51 | 0.79 | 1.17 | 0.37
12 | – | DNJA2_HUMAN | – | 1.00 | 0.64 | 1.02 | 0.87
13 | – | EKRKKLKEKALEKLKDPNRDLEEKVLLRNWLKSL | 14 | – | – | – | –
14 | – | EKILEIAKKKIEELKKKPGGLDLEKYLLYKKLIEKV | 15 | – | – | – | –
15 | – | MQPINKARALYRISHLKLSNSKREQDEQVLLRLHMIAFLNIVNHT | 0 | – | – | – | –
16 | – | ELIKRLYEKAKEKLKDESRSLEKKVLLRNWIKSL | 62.5 | – | – | – | –
17 | – | QRLMTLSVWKMYHSRMQRGGEDAWLSLMLSLAMRLG | 0 | – | – | – | –
18 | – | EEKLRILEKMEEKLKDKSLSLEKKVLLKNAKKSL | 28 | – | – | – | –
19 | – | RLPINLERALYRLSHLKLSNSKRELYEQVALKLAMLGFLNLVNHT | 11.5 | – | – | – | –
